Where “and” joins values, the source holds several entries; their conditions need not be identical. Equal entries are not always repeated.
Experiments:
B and T lymphocytes = assay: Flow cytometry of B and T lymphocytes after GCV treatment; assay type: in vivo, mouse
Description: Although the pattern of toxicity was clearly lymphoid-specific, it was not possible to evaluate the impact of GCV treatment on subpopulations of B and T cells by visual inspection. Flow cytometry was employed to analyze specific populations of B and T lymphocytes in mice subjected to various GCV treatment protocols. B lymphocytes were identified by analyzine for the markers, immunoglobulin and B220, and T lymphocytes were identified by Thy-1. After 7 days of GCV treatment, striking and different effects were observed on B and T lymphocytes in spleens of KHTK mice (FIG. 4). The most dramatic impact was on immunoglobulin and B220-positive B cells, which were reduced by a factor of 20 after GCV treatment. Cells bearing the T-cell surface marker, Thy-1, had decreased to 35% of the PBS group. Thus, although both B and T cells in the periphery were sensitive to the toxic action of GCV, B-cell lineages were more susceptible to ablation.
Mice of transgenic line 552 or nontransgenic littermates were treated with GCV for 5 days. The thymuses of individual mice were assayed by two-color flow cytometry and reported as a percentage of total thymocytes expressing the indicated markers. Data are typical of three experiments.
Mice were treated with GCV for 5 days and then two-color flow cytometry was performed to assess the effect of GCV treatment on double-positive, single-positive, and double-negative populations. In non-transgenic mice, 80% of cells were double-positive, 14% were single-positive, and 5% were double-negative. The composition of cells surviving GCV treatment in transgenic mice was markedly altered from that of the control population. There was a relative depletion by a factor of 4 in the double-positive L3T4^+, Lyt-2^+ population and a 3- to 5-fold increase in single-positive L3T4^+, Lyt-2^− and L3T4^−, Lyt-2^+ cells. There was also an increase in the percentage of cells expressing T-cell receptor complex-associated molecule CD3.ε. […] There was also a 6-fold increase in L3T4^−, Lyt-2^− cells. […] It should be pointed out that, although single-positive and CD3^+ cells are relatively enriched in the thymus of drug-treated animals (i.e., percentage), in terms of absolute cell number all thymic lineages are ablated in drug-treated transgenic animals.

thymocytes = assay: Recovery of the lymphoid system following GCV treatment; assay type: in vivo, mouse
Description: Recovery of the Lymphoid System following GCV Treatment. One potential advantage of the conditional ablation method is the ability to remove the drug and evaluate the regenerative capabilities of the affected cell lineages. Repopulation of specific thymocyte lineages in KHTK mice was examined by subjecting mice to a severe ablation of lymphoid tissues followed by a recovery period. Accordingly, one group of animals was treated with GCV or PBS for 7 days followed by a 7-day recovery period. All groups were assayed simultaneously for the total number of thymocytes and the presence of specific antigenic markers. Transgenic mice treated with PBS had 1.1×10^8 thymocytes, whereas, after 7 days of GCV treatment, >99% of the thymocyte population was depleted. After 7 days of recovery, the total number of cells increased by 60-fold to nearly 50% of the PBS-treated control group. To characterize specific populations of thymocytes in the depleted and recovery thymus, […] flow cytometry was performed. […] Nontransgenic mice treated with GCV had the same percentage of L3T4^+ and Lyt-2^+ thymocytes as PBS-treated animals.

[1] = system: Abelson leukemia virus induced lymphomas; assay: Lymphoma response to GCV in HSV-TK transgenic and nontransgenic mice; assay type: in vivo, mouse
Description: Lymphomas were induced by injecting 5 to 6 week old transgenic mice (generated as described in Example III) intravenously with 0.5 ml of cell-free medium from confluent cultures of 1806-6 cells grown in Dulbecco's medium containing 7% calf serum and 7% fetal bovine serum (Green et al., 1987). These cells produce helper-free Abelson leukemia virus, which induces monoclonal lymphomas principally of the fre-B cell type. The virus encodes a transforming protein but is defective and therefore incapable of replicating or of encoding retroviral antigens in the lymphoma cells it helps to generate. Starting 14 days after virus administration, the mice were palpated daily for lymphomas. These were detectable as small, firm, bilateral nodules in the inguinal region, representing enlarged inguinal lymph nodes. In most cases, the presence of the tumors could be suspected 1-2 days preceding a definitive diagnosis, but the latter was made only after daily palpation confirmed the presence and the growing nature of the enlarged nodes. In the litters used, more than 90% of the injected mice developed lymphomas.
In initial experiments, several transgenic mice were treated with GCV for 5 days (10 doses) without precautions against infection, based on dose schedules previously found to be well tolerated in nontransgenic mice [Moolten, Cancer Res. 46:5276-5281 (1986)]. […] Presuming these deaths to be due to infections consequent to the lymphoid depletion, we limited the GCV therapy to five doses for the subsequent trials reported below and instituted the short-term infection control regimen detailed above, which entailed the use of sterile cages and sterile food and water during a 21-day isolation period. These modifications eliminated all drug-related deaths.
GCV treatment was begun when lymphomas first appeared. […] After it was determined that death inevitably followed these preterminal symptoms, usually within 4 days, were killed animals when the symptoms first appeared rather than utilizing natural death as a survival end point; in the few cases where mice died with large tumors but without preterminal symptoms, the day of natural death was recorded as the end point. This practice introduced about 4 days of imprecision into the estimates of median survival but conforms to current humane guidelines [Medical Research Council, UK Coordinating Committee on Cancer Research: guidelines for the welfare of animals in experimental neoplasia (1988); Kallman et al., Cancer Res. 45:6541-6544 (1985)]. The transgenic mice and littermates were used from 10 litters born to 6 female line 563 transgenic mice mated to BALB/c males. The other nontransgenic controls listed comprised, in the GCV-treated group, 15 C57B1/6×BALB/c (CB6) mice F1 and F2generations) and 8 CB6F1×BALB/c mice, and in the untreated group 29 CB6 (F1 and F2,5 CB6F1×BALB/c, and 15 BALB/c mice. Since the founder mouse of the 563 line was heterozygous for genes derived from C57B1/6 and BALB/c mice, these additional mice complemented the littermate controls by eliminating the possibility that differences between transgenic mice and their littermates were attributable not to the transgene itself but to some other endogenous gene affecting the behavior of lymphomas that differ between C57B1/6 and BALB/c mice and which by accident of integration site found itself genetically linked to the transgene.

[2] = system: thymus, spleen, bone marrow and mesenteric lymph nodes
Description: The pathologic effect of GCV treatment was further evaluated by histological analysis.

[3] = GCV serum and tissue concentration by miniosmotic pump (HPLC)
Description: Transgenic mice from founder line 563 and their non-transgenic litter mates were treated with the nucleoside analog GCV for 1 week by using a miniosmotic pump. […] A separate control group was implanted with a miniosmotic pump containing isotonic phosphate-buffered saline (PBS).

[4] = nontransgenic littermates, GCV 5 days
[5] = transgenic line 552, GCV 5 days
[6] = transgenic vs nontransgenic, GCV 5 days
[7] = after 7 days of recovery following 7 days GCV
[8] = HSV-TK transgenics, GCV five doses
[9] = Nontransgenics Line 563 littermates, GCV
[10] = transgenic line 563, 7 days GCV

SMILES: Nc1nc2c(ncn2COC(CO)CO)c(=O)[nH]1 [GCV, 9-[(1,3-dihydroxy-2-propoxy)methyl]guanine]
- Thy-1 bearing cells in spleen (B and T lymphocytes; KHTK mice, 7 days GCV): 35 % of the PBS group
- reduction factor of immunoglobulin and B220-positive B cells in spleen (B and T lymphocytes; KHTK mice, 7 days GCV): 20
- single-positive cells (B and T lymphocytes; non-transgenic mice, GCV 5 days): 14%
- % thymocytes CD3.ε+ (B and T lymphocytes; [4]): 35%
- % thymocytes L3T4+, Lyt-2+ (B and T lymphocytes; [4]): 80%
- % thymocytes L3T4+, Lyt-2- (B and T lymphocytes; [4]): 10%
- % thymocytes L3T4-, Lyt-2+ (B and T lymphocytes; [4]): 4%
- % thymocytes L3T4-, Lyt-2- (B and T lymphocytes; [4]): 5%
- Total cell number (thymus) (B and T lymphocytes; [4]): 6.3 × 10^7
- profile of antigenic markers (B and T lymphocytes; nontransgenic mice treated with GCV): normal
- % thymocytes CD3.ε+ (B and T lymphocytes; [5]): 76%
- % thymocytes L3T4+, Lyt-2+ (B and T lymphocytes; [5]): 21%
- % thymocytes L3T4+, Lyt-2- (B and T lymphocytes; [5]): 27%
- % thymocytes L3T4-, Lyt-2+ (B and T lymphocytes; [5]): 21%
- % thymocytes L3T4-, Lyt-2- (B and T lymphocytes; [5]): 30%
- Total cell number (thymus) (B and T lymphocytes; [5]): 3.8 × 10^6
- increase in L3T4-, Lyt-2- cells (B and T lymphocytes; [6]): 6 fold
- relative depletion factor of double-positive L3T4+, Lyt-2+ population (B and T lymphocytes; [6]): 4
- increase of total number of thymocytes (thymocytes; [7]): 60 fold
- total number of thymocytes relative to PBS-treated control group (thymocytes; [7]): ~50%
- nonspecific effects on T-cell lineages (thymocytes; nontransgenic mice, GCV 7 days and recovery): no nonspecific effects
- thymocyte population depleted (thymocytes; transgenic mice, after 7 days of GCV treatment): > 99%
- Fraction of Mice with complete Regressions [1, 8]: 11 of 12 and 11/12
- Median survival (days) of mice with recurrent or persistent lymphoma [1, 8]: 39 days
- Number remaining recurrence-free for >100 days [1, 8]: 5
- Fraction of Mice with complete Regressions [1, 9]: 0/17
- Median survival (days) of mice with recurrent or persistent lymphoma [1, 9]: 13 days
- Number remaining recurrence-free for >100 days [1, 9]: 0
- Fraction of Mice with complete Regressions ([1]; Other nontransgenics, GCV): 0/23
- Median survival (days) of mice with recurrent or persistent lymphoma ([1]; Other nontransgenics, GCV): 8 days
- Number remaining recurrence-free for >100 days ([1]; Other nontransgenics, GCV): 0
- survival of mice with late recurrences ([1]; three transgenic mice, GCV five doses): 47 days and 63 days and 90 days
- tumor response ([1]; transgenic mice, GCV 5 days (10 doses), no precautions against infection): regressed and became undetectable after the fifth dose
- outcome of mice ([1]; transgenic mice, GCV 5 days (10 doses), no precautions against infection, usually during the second week): the mice died
- number of cells in the bone marrow ([2]; GCV-treated transgenic mice): 15 % of control
- number of cells in the spleen ([2]; GCV-treated transgenic mice): 15 % of control
- number of cells in the thymus ([2]; GCV-treated transgenic mice): 2 % of control
- cell counts of lymphoid tissues vs PBS-treated group ([2]; mouse, in vivo): unchanged
- pathology in nontransgenic mice ([2]; mouse, in vivo): no apparent pathology
- wet weights of lymph nodes [2, 10]: 20 % of control
- wet weights of the spleen and thymus [2, 10]: 15 % of control
- histology of thymus ([2]; transgenic mice, 7 days GCV): atrophied thymus with a virtual complete absence of the cortex and a hypocellular medulla
- steady-state serum concentration ([3]; miniosmotic pump, within 24 hr, HPLC): 1 to 5 µM
- concentration of GCV in all tissues assayed ([3]; relative to serum 1-5 μM): comparable to this value

Source: patent publication US6677311B1, “Inducible HSV-TK in transformed cell populations” (priority 1988, dated 2004)
